The numbers were not newly measured in patent US20190021988A1, “ENHANCED TRANSDERMAL DELIVERY OF ACTIVE AGENTS” (priority 2016, published 2019), which cites them from elsewhere.

The subject of this data set is desmosome-induced tight junctions between corneocytes.

As for “TD-1: skin penetrating peptide with the amino acid sequence ACSSSPSKHCG, disclosed in WO2007/035474”, the “time until cell gaps are restored after treatment” value (after treatment) was 1 h. The “space between cells after topical application” value (change from about 30 nm, in 30 minutes from topical application) is “about 466 nm”.
